Test results taken from ChEMBL document CHEMBL1909046, “DrugMatrix in vitro pharmacology data”.
Where a SMILES comes first, the peptide text is derived from it. Bridges are numbered along the chain shown (N, C = ends). [ ]: non-standard residue; d: D form. The star is where a group is joined. Ileψ(thiazoline)Cys = CC[C@H](C)[C@H](N)C1=N[C@H](C(=O)*)CS1; dOrn = NCCC[C@@H](N)C(=O)O

Key:
[1] = biological target: T1, C-X-C chemokine receptor type 2 (Homo sapiens, UniProt P25025); assay type: cell membranes, Membrane; conditions: cho-k1; further: in other assays of this panel Not Active means under 50% inhibition at 10 µM
T1 sequence (P25025 whole entry): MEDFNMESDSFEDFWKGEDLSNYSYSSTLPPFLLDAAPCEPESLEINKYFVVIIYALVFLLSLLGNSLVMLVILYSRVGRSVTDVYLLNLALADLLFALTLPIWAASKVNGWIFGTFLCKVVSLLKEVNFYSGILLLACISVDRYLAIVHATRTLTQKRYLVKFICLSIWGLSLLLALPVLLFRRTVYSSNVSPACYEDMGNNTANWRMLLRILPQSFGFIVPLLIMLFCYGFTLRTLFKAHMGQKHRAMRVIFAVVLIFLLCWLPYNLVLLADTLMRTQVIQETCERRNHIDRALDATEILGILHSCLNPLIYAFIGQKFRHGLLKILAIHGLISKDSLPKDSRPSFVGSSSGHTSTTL

[2] = biological target: T2, Vasoactive intestinal polypeptide receptor 1 (Homo sapiens, UniProt P32241); assay type: cell membranes, Membrane; conditions: ht-29; further: in other assays of this panel Not Active means under 50% inhibition at 10 µM
T2 sequence (P32241 whole entry): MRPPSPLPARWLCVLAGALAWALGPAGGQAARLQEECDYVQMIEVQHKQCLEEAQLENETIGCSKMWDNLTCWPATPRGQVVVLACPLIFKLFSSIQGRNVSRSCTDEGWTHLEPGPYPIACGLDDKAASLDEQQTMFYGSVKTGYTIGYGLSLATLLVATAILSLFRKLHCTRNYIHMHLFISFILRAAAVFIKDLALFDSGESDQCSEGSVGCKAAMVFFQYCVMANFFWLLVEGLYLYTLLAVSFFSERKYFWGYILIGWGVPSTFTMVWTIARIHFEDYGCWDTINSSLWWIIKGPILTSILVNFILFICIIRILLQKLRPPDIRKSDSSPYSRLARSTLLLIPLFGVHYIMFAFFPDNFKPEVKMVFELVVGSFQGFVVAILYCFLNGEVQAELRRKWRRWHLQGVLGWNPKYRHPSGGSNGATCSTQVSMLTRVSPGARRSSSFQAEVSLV

[3] = biological target: 5-hydroxytryptamine receptor 4 (Cavia porcellus, UniProt O70528); assay type: cell membranes, Dunkin-Hartley, Striatum, Membrane; further: in other assays of this panel Not Active means under 50% inhibition at 10 µM
Chain of 5-hydroxytryptamine receptor 4 (O70528 whole entry): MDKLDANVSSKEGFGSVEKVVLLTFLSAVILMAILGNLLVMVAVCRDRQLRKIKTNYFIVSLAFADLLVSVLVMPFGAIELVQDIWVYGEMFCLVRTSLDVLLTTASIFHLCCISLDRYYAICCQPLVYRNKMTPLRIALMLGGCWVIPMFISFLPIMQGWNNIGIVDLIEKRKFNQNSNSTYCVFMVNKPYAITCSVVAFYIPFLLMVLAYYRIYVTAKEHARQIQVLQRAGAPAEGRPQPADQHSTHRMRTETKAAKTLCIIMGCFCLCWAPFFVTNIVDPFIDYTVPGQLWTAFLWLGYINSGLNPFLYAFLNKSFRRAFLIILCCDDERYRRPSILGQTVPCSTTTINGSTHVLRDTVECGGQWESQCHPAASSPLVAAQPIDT

[4] = biological target: Matrix metalloproteinase-9 (Homo sapiens, UniProt P14780); assay type: cell-based;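 further: inhibition of isolated MMP-9 enzyme activity toward a synthetic peptide substrate, from the DrugMatrix protease screening panel; in other assays of this panel Not Active means under 50% inhibition at 10 µM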
Chain of Matrix metalloproteinase-9 (P14780 whole entry): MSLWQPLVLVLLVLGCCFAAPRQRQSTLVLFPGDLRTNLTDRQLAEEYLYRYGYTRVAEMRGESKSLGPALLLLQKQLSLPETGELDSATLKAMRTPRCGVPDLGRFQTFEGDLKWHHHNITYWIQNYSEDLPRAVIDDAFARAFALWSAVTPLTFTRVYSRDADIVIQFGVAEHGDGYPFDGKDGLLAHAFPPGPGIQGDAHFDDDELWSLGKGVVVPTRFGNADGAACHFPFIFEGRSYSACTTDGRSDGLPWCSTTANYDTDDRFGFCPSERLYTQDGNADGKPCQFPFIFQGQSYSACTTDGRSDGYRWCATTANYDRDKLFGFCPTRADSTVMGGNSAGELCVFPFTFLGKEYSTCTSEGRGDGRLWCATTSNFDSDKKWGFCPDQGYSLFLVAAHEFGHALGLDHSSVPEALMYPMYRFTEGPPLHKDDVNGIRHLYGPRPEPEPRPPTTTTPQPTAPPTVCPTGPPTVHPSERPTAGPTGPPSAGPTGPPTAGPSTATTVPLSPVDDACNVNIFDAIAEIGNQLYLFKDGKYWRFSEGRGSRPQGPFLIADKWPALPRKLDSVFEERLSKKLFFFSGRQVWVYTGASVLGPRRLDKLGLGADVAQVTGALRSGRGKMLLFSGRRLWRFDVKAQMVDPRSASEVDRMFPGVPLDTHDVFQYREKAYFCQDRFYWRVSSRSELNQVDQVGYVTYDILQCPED

[5] = biological target: 5-hydroxytryptamine receptor 6 (Homo sapiens, UniProt P50406); assay type: cell membranes, HeLa, Membrane; conditions: hela; further: in other assays of this panel Not Active means under 50% inhibition at 10 µM
Chain of 5-hydroxytryptamine receptor 6 (P50406 whole entry): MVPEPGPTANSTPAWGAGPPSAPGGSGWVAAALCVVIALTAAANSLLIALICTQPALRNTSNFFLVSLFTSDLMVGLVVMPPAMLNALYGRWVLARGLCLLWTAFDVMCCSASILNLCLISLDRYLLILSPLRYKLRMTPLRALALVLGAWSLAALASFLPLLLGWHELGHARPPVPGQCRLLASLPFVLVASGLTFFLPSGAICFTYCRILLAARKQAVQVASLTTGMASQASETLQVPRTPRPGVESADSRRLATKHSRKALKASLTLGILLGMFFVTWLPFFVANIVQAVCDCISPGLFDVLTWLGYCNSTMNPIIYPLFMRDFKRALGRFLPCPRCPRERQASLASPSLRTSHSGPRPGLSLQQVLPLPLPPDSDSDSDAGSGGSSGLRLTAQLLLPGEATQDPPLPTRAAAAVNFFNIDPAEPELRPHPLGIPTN

[6] = DRUGMATRIX: GABAA, Flunitrazepam, Central radioligand binding (ligand: [3H] Flunitrazepam); assay type: cell membranes, Rattus norvegicus, Wistar, Brain, Membrane; conditions: Not Active = under 50% inhibition at 10 µM
[7] = DRUGMATRIX: Atrial Natriuretic Factor (ANF) radioligand binding (ligand: [125I] ANF (rat)); assay type: cell membranes, Cavia porcellus, Dunkin-Hartley, Adrenal gland, Membrane; conditions: Not Active = under 50% inhibition at 10 µM
Leukotriene C4 synthase = biological target: T3, Leukotriene C4 synthase (Cavia porcellus, UniProt A6XA80); assay: biochemical; assay type: tissue-based, Lung
T3 sequence (A6XA80 whole entry): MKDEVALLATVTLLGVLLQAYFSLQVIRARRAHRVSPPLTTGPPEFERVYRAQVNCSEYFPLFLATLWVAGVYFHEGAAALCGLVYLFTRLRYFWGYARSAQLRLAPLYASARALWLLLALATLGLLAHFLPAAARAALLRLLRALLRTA

Calcitonin receptor = biological target: T4, Calcitonin receptor (Homo sapiens, UniProt P30988); assay type: cell membranes, Membrane; conditions: t47d; further: in other assays of this panel Not Active means under 50% inhibition at 10 µM
T4 sequence (P30988 whole entry): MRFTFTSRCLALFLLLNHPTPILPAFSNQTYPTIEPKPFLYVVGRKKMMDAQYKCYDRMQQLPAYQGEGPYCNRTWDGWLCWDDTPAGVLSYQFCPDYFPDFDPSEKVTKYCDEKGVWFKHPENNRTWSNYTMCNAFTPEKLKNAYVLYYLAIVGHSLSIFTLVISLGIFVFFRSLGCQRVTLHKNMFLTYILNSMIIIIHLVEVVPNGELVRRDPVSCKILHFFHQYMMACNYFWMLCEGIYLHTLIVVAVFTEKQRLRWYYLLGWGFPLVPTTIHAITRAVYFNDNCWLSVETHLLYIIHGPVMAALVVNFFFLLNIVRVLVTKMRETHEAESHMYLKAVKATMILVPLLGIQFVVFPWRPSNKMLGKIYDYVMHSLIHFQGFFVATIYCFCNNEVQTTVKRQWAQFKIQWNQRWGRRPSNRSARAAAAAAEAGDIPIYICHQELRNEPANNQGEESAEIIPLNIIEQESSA

[8] = biological target: Vascular endothelial growth factor receptor 1 (Homo sapiens, UniProt P17948); assay type: cell-based; conditions: huvec; further: in other assays of this panel Not Active means under 50% inhibition at 10 µM
Chain of Vascular endothelial growth factor receptor 1 (P17948 whole entry): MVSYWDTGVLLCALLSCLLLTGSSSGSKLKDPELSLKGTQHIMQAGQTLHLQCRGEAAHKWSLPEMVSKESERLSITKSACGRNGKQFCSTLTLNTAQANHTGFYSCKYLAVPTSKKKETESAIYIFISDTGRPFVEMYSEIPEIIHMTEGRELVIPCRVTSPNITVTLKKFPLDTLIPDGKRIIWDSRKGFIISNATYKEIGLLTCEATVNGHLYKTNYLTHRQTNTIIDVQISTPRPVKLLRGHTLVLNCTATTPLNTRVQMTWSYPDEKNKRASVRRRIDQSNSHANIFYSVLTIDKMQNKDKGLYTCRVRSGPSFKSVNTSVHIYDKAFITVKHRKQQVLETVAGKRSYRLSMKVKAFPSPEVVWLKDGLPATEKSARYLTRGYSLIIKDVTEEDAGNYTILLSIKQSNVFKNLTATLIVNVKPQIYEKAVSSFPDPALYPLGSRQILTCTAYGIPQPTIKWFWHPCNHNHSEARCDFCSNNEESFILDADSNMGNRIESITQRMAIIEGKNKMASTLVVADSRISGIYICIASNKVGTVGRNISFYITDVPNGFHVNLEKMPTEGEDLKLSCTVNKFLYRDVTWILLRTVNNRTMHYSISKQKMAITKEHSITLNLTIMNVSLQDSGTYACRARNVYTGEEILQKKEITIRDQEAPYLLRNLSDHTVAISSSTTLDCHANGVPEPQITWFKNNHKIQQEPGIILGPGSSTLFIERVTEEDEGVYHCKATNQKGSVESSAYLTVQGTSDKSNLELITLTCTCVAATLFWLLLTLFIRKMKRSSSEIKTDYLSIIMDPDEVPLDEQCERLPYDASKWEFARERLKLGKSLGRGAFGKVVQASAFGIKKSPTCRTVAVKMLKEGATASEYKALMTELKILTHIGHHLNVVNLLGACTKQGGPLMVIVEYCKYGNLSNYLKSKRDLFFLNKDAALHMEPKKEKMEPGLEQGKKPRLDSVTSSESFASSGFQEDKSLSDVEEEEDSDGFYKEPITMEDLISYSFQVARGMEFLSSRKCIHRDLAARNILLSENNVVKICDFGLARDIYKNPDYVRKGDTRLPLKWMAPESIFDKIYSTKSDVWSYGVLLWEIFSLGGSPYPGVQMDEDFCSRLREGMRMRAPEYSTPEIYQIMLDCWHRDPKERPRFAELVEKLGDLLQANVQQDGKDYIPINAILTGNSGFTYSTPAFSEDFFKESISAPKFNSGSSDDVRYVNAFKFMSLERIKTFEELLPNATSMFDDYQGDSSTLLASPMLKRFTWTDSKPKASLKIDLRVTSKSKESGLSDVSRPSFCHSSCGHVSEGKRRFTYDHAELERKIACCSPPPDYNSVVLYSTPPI

Adenosine receptor A1 = biological target: T5, Adenosine receptor A1 (Homo sapiens, UniProt P30542); assay type: cell membranes, CHO, Membrane; conditions: cho
T5 sequence (P30542 whole entry): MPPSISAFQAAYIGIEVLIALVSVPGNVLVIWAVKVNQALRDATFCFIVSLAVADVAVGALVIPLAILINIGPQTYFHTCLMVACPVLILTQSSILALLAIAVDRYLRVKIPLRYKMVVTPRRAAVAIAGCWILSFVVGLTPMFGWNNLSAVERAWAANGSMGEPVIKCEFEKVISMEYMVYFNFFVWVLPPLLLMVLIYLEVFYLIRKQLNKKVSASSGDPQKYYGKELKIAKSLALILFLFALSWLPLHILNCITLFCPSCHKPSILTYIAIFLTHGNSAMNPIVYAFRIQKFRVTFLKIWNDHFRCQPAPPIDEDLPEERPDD

Thromboxane-A synthase = biological target: T6, Thromboxane-A synthase (Homo sapiens, UniProt P24557); assay: biochemical; assay type: tissue-based, Platelet; conditions: platelet
T6 sequence (P24557 whole entry): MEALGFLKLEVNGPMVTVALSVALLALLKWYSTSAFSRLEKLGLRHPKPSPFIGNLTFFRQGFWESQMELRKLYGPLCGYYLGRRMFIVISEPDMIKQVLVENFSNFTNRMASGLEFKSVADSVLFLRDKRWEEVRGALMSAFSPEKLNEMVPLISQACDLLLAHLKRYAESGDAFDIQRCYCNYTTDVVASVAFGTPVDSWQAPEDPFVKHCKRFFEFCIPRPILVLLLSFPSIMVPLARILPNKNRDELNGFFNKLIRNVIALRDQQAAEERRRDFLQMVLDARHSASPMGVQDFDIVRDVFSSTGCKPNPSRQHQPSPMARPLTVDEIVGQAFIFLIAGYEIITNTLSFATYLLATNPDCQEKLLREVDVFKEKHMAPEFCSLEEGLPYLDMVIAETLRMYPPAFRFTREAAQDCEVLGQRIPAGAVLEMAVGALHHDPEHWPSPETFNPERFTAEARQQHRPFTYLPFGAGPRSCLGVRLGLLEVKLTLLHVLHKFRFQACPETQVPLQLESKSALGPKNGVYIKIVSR

Cytochrome P450 3A4 = Cytochrome P450 3A4 (Homo sapiens, UniProt P08684); conditions: bti-tn-5b1-4; further: in other assays of this panel Not Active means under 50% inhibition at 10 µM
Chain of Cytochrome P450 3A4 (P08684 whole entry): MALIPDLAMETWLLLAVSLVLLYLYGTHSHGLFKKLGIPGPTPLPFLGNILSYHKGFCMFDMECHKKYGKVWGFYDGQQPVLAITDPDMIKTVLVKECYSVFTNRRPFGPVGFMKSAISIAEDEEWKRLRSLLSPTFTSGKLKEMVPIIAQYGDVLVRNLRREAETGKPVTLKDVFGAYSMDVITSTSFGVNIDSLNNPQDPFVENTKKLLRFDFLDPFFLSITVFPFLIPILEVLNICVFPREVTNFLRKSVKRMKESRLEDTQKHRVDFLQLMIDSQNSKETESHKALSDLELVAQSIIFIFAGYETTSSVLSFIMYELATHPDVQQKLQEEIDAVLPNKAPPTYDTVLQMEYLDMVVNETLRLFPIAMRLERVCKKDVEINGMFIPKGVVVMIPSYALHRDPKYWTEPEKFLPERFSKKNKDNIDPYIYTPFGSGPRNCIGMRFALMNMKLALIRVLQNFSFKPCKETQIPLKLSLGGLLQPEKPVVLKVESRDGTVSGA

CC1(C)S[C@@H]2[C@H](NC(=O)[C@H](NC(=O)N3CCNC3=O)c3ccccc3)C(=O)N2[C@H]1C(=O)O [AZLOCILLIN]
Not Active: IC50 [1] | IC50 [2] | IC50 [3] | IC50 [4] | IC50 [5] | IC50 [6] | Ki [6] | IC50 [7] | Ki [7] | IC50 (Leukotriene C4 synthase) | IC50 (Calcitonin receptor) | IC50 [8] | IC50 (Adenosine receptor A1) | IC50 (Thromboxane-A synthase) | IC50 (Cytochrome P450 3A4) | Ki (Cytochrome P450 3A4)

CC[C@H](C)[C@H](N)C1=N[C@H](C(=O)N[C@@H](CC(C)C)C(=O)N[C@H](CCC(=O)O)C(=O)N[C@H](C(=O)N[C@H]2CCCCNC(=O)[C@H](CC(N)=O)NC(=O)[C@@H](CC(=O)O)NC(=O)[C@H](Cc3cnc[nH]3)NC(=O)[C@@H](Cc3ccccc3)NC(=O)[C@H]([C@@H](C)CC)NC(=O)[C@@H](CCCN)NC2=O)[C@@H](C)CC)CS1 [BACITRACIN] ({Ileψ(thiazoline)Cys}-L[dE]IK[dOrn]I[dF]H[dD]N; lactam 4-C)
Not Active: IC50 [1] | IC50 [2] | IC50 [3] | IC50 [4] | IC50 [5] | IC50 [6] | Ki [6] | IC50 [7] | Ki [7] | IC50 (Leukotriene C4 synthase) | IC50 (Calcitonin receptor) | IC50 [8] | IC50 (Adenosine receptor A1) | IC50 (Thromboxane-A synthase) | IC50 (Cytochrome P450 3A4) | Ki (Cytochrome P450 3A4)

CCOC(=O)c1ccc(N)cc1 [BENZOCAINE]
Not Active: IC50 [1] | IC50 [2] | IC50 [3] | IC50 [4] | IC50 [5] | IC50 [6] | Ki [6] | IC50 [7] | Ki [7] | IC50 (Leukotriene C4 synthase) | IC50 (Calcitonin receptor) | IC50 [8] | IC50 (Adenosine receptor A1) | IC50 (Thromboxane-A synthase) | IC50 (Cytochrome P450 3A4) | Ki (Cytochrome P450 3A4)

OCc1ccccc1 [BENZYL ALCOHOL]
Not Active: IC50 [1] | IC50 [2] | IC50 [3] | IC50 [4] | IC50 [5] | IC50 [6] | Ki [6] | IC50 [7] | Ki [7] | IC50 (Leukotriene C4 synthase) | IC50 (Calcitonin receptor) | IC50 [8] | IC50 (Adenosine receptor A1) | IC50 (Thromboxane-A synthase) | IC50 (Cytochrome P450 3A4) | Ki (Cytochrome P450 3A4)

CC(C)(Oc1ccc(CCNC(=O)c2ccc(Cl)cc2)cc1)C(=O)O [BEZAFIBRATE]
Not Active: IC50 [1] | IC50 [2] | IC50 [3] | IC50 [4] | IC50 [5] | IC50 [6] | Ki [6] | IC50 [7] | Ki [7] | IC50 (Leukotriene C4 synthase) | IC50 (Calcitonin receptor) | IC50 [8] | IC50 (Adenosine receptor A1) | IC50 (Thromboxane-A synthase) | IC50 (Cytochrome P450 3A4) | Ki (Cytochrome P450 3A4)

CCCC[C@@H](CC)COC(=O)c1ccccc1C(=O)OC[C@@H](CC)CCCC [BIS(2-ETHYLHEXYL)PHTHALATE]
Not Active: IC50 [1] | IC50 [2] | IC50 [3] | IC50 [4] | IC50 [5] | IC50 [6] | Ki [6] | IC50 [7] | Ki [7] | IC50 (Leukotriene C4 synthase) | IC50 (Calcitonin receptor) | IC50 [8] | IC50 (Adenosine receptor A1) | IC50 (Thromboxane-A synthase) | IC50 (Cytochrome P450 3A4) | Ki (Cytochrome P450 3A4)
